The text below walks through data of patent US11338040B2, “Immunomodulatory compounds” (Leidos, Inc., priority 2020, dated 2022).

For data set [1], the target named is T1, interaction between LAG3 and MHC-II (Homo sapiens, UniProt P18627).
T1 construct: purchased Cisbio US Inc
T1 sequence (P18627 23-450 limits assumed): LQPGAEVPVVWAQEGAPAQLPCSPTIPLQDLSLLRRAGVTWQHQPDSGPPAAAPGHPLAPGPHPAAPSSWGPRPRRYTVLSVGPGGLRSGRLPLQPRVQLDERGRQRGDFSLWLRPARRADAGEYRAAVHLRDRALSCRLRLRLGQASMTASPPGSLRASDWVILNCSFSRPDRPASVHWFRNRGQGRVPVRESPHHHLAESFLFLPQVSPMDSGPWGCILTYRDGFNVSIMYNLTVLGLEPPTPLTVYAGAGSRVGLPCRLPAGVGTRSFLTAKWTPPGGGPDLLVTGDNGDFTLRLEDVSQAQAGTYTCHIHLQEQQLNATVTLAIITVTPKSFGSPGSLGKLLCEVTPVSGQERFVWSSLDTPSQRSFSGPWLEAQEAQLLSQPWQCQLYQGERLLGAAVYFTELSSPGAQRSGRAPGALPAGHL
Nature of the data set: HTRF (TR-FRET) LAG3/MHC-II binding assay. The following applies: for response in dilution curve (HTRF signal): 10-fold dilutions starting at 100 μM or 10 μM, FIGS. 2A-9B; for effect on HTRF signal: tested at 100 μM, 10 μM, and 1 μM, FIG. 1. From the text:
A Homogeneous Time-resolved Fluorescence (HTRF) LAG3/MHC-II binding assay (Cisbio US Inc.) was used to measure the interaction between MHC-II and LAG3 in the presence of various peptides and peptide conjugates. In this assay, the interaction between Tag1-LAG3 and Tag2-MHC-II is detected by using anti-Tag1-Terbium (HTRF donor) and anti-Tag2-XL665 (HTRF acceptor). When the donor and acceptor antibodies are brought into close proximity due to LAG3 and MHC-II binding, excitation of the donor antibody triggers fluorescent resonance energy transfer (FRET) towards the acceptor antibody, which in turn emits specifically at 665 nm. This specific signal is directly proportional to the extent of LAG3/MHC-II interaction. Thus, an agent that blocks the interaction between LAG3 and MHC-II will cause a reduction in HTRF ratio.
Each of peptide conjugates BT1, BT2, BT3, BT4, BT5, BT6, BT7, BT8, BT9, and peptides LG11 (LAG3-11), LAG3-56 (SEQ ID NO:5), and LAG3-42 (SEQ ID NO:6) was tested at 3 concentrations: 100 μM, 10 μM, and 1 μM. The dashed-lines represent the HTRF ratio readout of a control ovalbumin peptide (OVA, SEQ ID NO:7) (baseline) at the respective concentrations.
peptide conjugates and LG peptides were tested in full dilution curves in the LAG3:MHCII TR-FRET Assay described above to estimate IC50. peptide conjugates were tested starting at 100 μM or 10 μM. LG peptides were tested starting at 100 μM.
In general terms: Time-resolved FRET reads energy transfer from a long-lived donor to a nearby acceptor.

Another data set addresses T2, PD1 (Homo sapiens, UniProt Q15116).
T2 construct: expressed in transfected cells; host or cells: Jurkat cells (PD1-EFC and SHP1-EFC) co-cultured with PDL1-presenting U2OS cells
In words: PD1/PDL1 cell reporter assay (PathHunter, Jurkat PD1/SHP1 EFC cells co-incubated with PDL1-presenting U2OS cells). It is filed as cell-based. As to conditions: peptide conjugates at 3.6 μM, 10.8 μM, 32.5 μM in triplicate; FIG. 10. The procedure:
Jurkat cells expressing PD1 and SHP1 proteins, each fused to a fragment of enzyme fragment complementation (EFC) system, were co-incubated with PDL1-presenting U2OS cells. […] Cells in co-culture were incubated at room temperature (RT) for 2 h (PD1 assay). The assay signal was generated using the PathHunter Bioassay Detection kit. Microplates were read following signal generation using a PerkinElmer ENVISION™ instrument for chemiluminescent signal detection. Inhibitory peptides or antibodies added to the culture result in reduction of light signal. The degree of inhibition was calculated using the following formula: Percent inhibition=100%×[1−(mean RLU of test sample−mean RLU of vehicle control)/mean RLU of EC80 control−mean RLU of vehicle control)].
Peptide conjugates BT1-BT11 were tested at three concentrations: 3.6 μM, 10.8 μM, 32.5 μM in triplicate wells. peptide conjugates were dissolved in DMSO and serially diluted in assay buffer. The highest concentration that can be tested in this assay was 32.5 μM peptide conjugate (1% DMSO).
Peptides LD12 (SEQ ID NO:9), LD10 (SEQ ID NO:1), and LD16 (SEQ ID NO:10) were tested at three concentrations: 11 μM, 33 μM, 100 μM in triplicate. LD peptides were dissolved in water and serially diluted in assay buffer. RLUs were measured at the end of the assay, and % Inhibition (% Efficiency) was calculated using the formula above.
(Reporter assays use an easily measured gene product as a stand-in for the process of interest.)

Data set [2] is described as follows: Precipitation on dilution in assay buffer. As to conditions: 100 μM final in assay buffer. It is filed as physicochemical. As to the method:
FIG. 1 is a graph reporting the results of a TR-FRET assay testing the ability of peptide conjugates and individual peptides to affect the interaction between LAG3 and MHC-II. * indicates precipitation when diluted in assay buffer at 1 mM (100 μM final).

For orientation: IC50 means the concentration at which inhibition is half-maximal. The low end stands for greater potency, the high end for weaker potency.

Non-standard residues stand in square brackets, D forms with d. Residues, ends and D or L forms follow the SMILES beside them. PEG4 = NCCOCCOCCOCCOCCC(=O)O

T2 sequence (Q15116 25-288): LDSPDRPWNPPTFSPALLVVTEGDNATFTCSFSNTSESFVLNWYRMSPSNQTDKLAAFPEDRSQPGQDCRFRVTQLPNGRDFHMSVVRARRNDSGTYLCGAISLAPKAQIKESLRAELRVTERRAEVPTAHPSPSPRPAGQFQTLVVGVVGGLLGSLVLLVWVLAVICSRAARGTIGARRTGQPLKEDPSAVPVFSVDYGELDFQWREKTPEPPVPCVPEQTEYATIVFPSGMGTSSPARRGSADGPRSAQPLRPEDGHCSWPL

As for `CC[C@H](C)[C@H](NC(=O)[C@H](CCC(N)=O)NC(=O)CNC(=O)[C@@H](NC(=O)[C@@H](CO)NC(=O)CCOCCOCCOCCOCCNC(=O)[C@H](Cc1c[nH]c2ccccc12)NC(=O)[C@H](CCC(=O)O)NC(=O)CNC(=O)[C@@H](NC(=O)CNC(=O)[C@H](CCC(N)=O)NC(=O)[C@H](Cc1c[nH]c2ccccc12)NC(=O)[C@H](Cc1c[nH]c2ccccc12)NC(=O)[C@H](CC(=O)O)NC(=O)[C@H](CCC(=O)O)NC(=O)[C@@H]1CCCN1C(=O)[C@H](Cc1c[nH]c2ccccc12)NC(=O)[C@H](Cc1c[nH]cn1)NC(=O)[C@H](CC(C)C)NC(=O)[C@@H]1CCCN1C(=O)[C@H](CCC(=O)O)NC(=O)[C@H](Cc1c[nH]c2ccccc12)NC(=O)[C@@H]1CCCN1C(=O)[C@H](C)NC(=O)[C@@H](N)CO)[C@@H](C)O)[C@@H](C)O)C(=O)N[C@@H](CO)C(=O)N[C@H](C(=O)N[C@@H](CC(C)C)C(=O)N[C@@H](CCCNC(=N)N)C(=O)N[C@H](C(=O)N[C@@H](CC(N)=O)C(=O)N[C@H](C(=O)N[C@H](C(=O)N[C@@H](C)C(=O)N1CCC[C@H]1C(=O)N[C@@H](CC(C)C)C(=O)N[C@@H](CO)C(=O)N[C@@H](CCC(N)=O)C(N)=O)[C@@H](C)O)[C@@H](C)CC)C(C)C)[C@@H](C)O` [BT2], in data set [1], the “response in dilution curve (HTRF signal)” value is on record as “reduced the HTRF signal at 10 μM” and the “effect on HTRF signal” value is given as “reduced the HTRF signal”. Besides, in data set [1] (LAG3:MHCII TR-FRET full dilution curves), the IC50 amounted to 8.44 µM. For the same compound, the “inhibition of PD1 activity (percent inhibition of light signal)” value at PD1 is “did not show inhibition at any of the tested concentrations”. The “precipitation in assay buffer” value in data set [2] is on record as “precipitation occurred at 100 μM”.

On to `CC[C@H](C)[C@H](NC(=O)[C@H](CO)NC(=O)[C@@H](NC(=O)[C@H](CC(C)C)NC(=O)[C@H](CCCNC(=N)N)NC(=O)[C@@H](NC(=O)[C@H](CC(N)=O)NC(=O)[C@@H](NC(=O)[C@@H](NC(=O)[C@H](C)NC(=O)[C@@H]1CCCN1C(=O)[C@H](CC(C)C)NC(=O)[C@H](CO)NC(=O)[C@H](CCC(N)=O)NC(=O)CCOCCOCCOCCOCCNC(=O)[C@H](Cc1c[nH]c2ccccc12)NC(=O)[C@H](CCC(=O)O)NC(=O)CNC(=O)[C@@H](NC(=O)CNC(=O)[C@H](CCC(N)=O)NC(=O)[C@H](Cc1c[nH]c2ccccc12)NC(=O)[C@H](Cc1c[nH]c2ccccc12)NC(=O)[C@H](CC(=O)O)NC(=O)[C@H](CCC(=O)O)NC(=O)[C@@H]1CCCN1C(=O)[C@H](Cc1c[nH]c2ccccc12)NC(=O)[C@H](Cc1c[nH]cn1)NC(=O)[C@H](CC(C)C)NC(=O)[C@@H]1CCCN1C(=O)[C@H](CCC(=O)O)NC(=O)[C@H](Cc1c[nH]c2ccccc12)NC(=O)[C@@H]1CCCN1C(=O)[C@H](C)NC(=O)[C@@H](N)CO)[C@@H](C)O)[C@@H](C)O)[C@@H](C)CC)C(C)C)[C@@H](C)O)C(=O)N[C@@H](CCC(N)=O)C(=O)NCC(=O)N[C@H](C(=O)N[C@H](CO)C(N)=O)[C@@H](C)O` [BT4] (H-SAPWEPLHWPEDWWQGTGEW[PEG4]QSLPATINVRLTSIQGT[dS]-NH2), for which, in data set [1], the “response in dilution curve (HTRF signal)” value is given as “reduced the HTRF signal at 10 μM” and the “effect on HTRF signal” value is reported as “reduced the HTRF signal”. On PD1, the “inhibition of PD1 activity (percent inhibition of light signal)” value was “did not show inhibition at any of the tested concentrations”. Besides, in data set [2], the “precipitation in assay buffer” value was “precipitation occurred at 100 μM”.

With `CC[C@H](C)[C@H](NC(=O)[C@H](CO)NC(=O)[C@@H](NC(=O)[C@H](CC(C)C)NC(=O)[C@H](CCCNC(=N)N)NC(=O)[C@@H](NC(=O)[C@H](CC(N)=O)NC(=O)[C@@H](NC(=O)[C@@H](NC(=O)[C@H](C)NC(=O)[C@@H]1CCCN1C(=O)[C@H](CC(C)C)NC(=O)[C@H](CO)NC(=O)[C@H](CCC(N)=O)NC(=O)CCOCCOCCOCCOCCNC(=O)[C@H](CO)NC(=O)[C@H](C)NC(=O)[C@@H]1CCCN1C(=O)[C@H](Cc1c[nH]c2ccccc12)NC(=O)[C@H](CCC(=O)O)NC(=O)[C@@H]1CCCN1C(=O)[C@H](CC(C)C)NC(=O)[C@H](Cc1c[nH]cn1)NC(=O)[C@H](Cc1c[nH]c2ccccc12)NC(=O)[C@@H]1CCCN1C(=O)[C@H](CCC(=O)O)NC(=O)[C@H](CC(=O)O)NC(=O)[C@H](Cc1c[nH]c2ccccc12)NC(=O)[C@H](Cc1c[nH]c2ccccc12)NC(=O)[C@H](CCC(N)=O)NC(=O)CNC(=O)[C@@H](NC(=O)CNC(=O)[C@H](CCC(=O)O)NC(=O)[C@@H](N)Cc1c[nH]c2ccccc12)[C@@H](C)O)[C@@H](C)O)[C@@H](C)CC)C(C)C)[C@@H](C)O)C(=O)N[C@@H](CCC(N)=O)C(=O)NCC(=O)N[C@H](C(=O)N[C@H](CO)C(N)=O)[C@@H](C)O` [BT5] (H-WEGTGQWWDEPWHLPEWPAS[PEG4]QSLPATINVRLTSIQGT[dS]-NH2), in data set [1], the “response in dilution curve (HTRF signal)” value is “reduced the HTRF signal at 10 μM” and the “effect on HTRF signal” value is recorded as “reduced the HTRF signal”. Moreover, the “inhibition of PD1 activity (percent inhibition of light signal)” value at PD1 is given as “did not show inhibition at any of the tested concentrations”. The “precipitation in assay buffer” value in data set [2] is “precipitation occurred at 100 μM”.

As for “H2N-(dS)TGQISTLRVNITAPLSQ^1-PEG4-SAPWEPLHWPEDWWQGTGEW^3-amide [BT1]”, in data set [1], the “response in dilution curve (HTRF signal)” value is recorded as “reduced the HTRF signal at 10 μM” and the “effect on HTRF signal” value is listed as “reduced the HTRF signal”. Besides, the “inhibition of PD1 activity (percent inhibition of light signal)” value on PD1 is “did not show inhibition at any of the tested concentrations”. Also, the “precipitation in assay buffer” value in data set [2] is “precipitation occurred at 100 μM”.
